{
  "source": "patent US20230218714A1",
  "about": "“DIAGNOSTICS AND USE OF QUORUM SENSING MOLECULES IN MUSCLE WASTING” (Universiteit Gent, priority 2019, published 2023)",
  "key": {"[1]": {"tested_on": "C2C12 myoblasts", "assay": "MTT cell viability assay in C2C12 myoblasts", "description": "The mouse myoblast C2C12 cell line (ATCC, CRL-1772) was cultured at 37° C. in a 5% CO2 humidified incubator in Dulbecco's modified Eagle medium (DMEM; Thermo Fisher Scientific). For C2C12 cell proliferation, the medium was supplemented with 10% fetal bovine serum (FBS; Thermo Fisher Scientific), 100 units/ml penicillin, and 100 μg/ml streptomycin (1% Pen/Strep; Thermo Fisher Scientific). The proliferation medium was renewed each 2-3 days and confluency was kept below 80%. For differentiation of the C2C12 myoblasts into myotubes, proliferation medium was replaced by differentiation medium when cells reached 80% confluency.\nViability of QSM was assessed using the 3-(4,5-dimethylthiazol-2-yl)-2,5-diphenyltetrazolium bromide (MTT) assay. Briefly, C2C12 myoblasts were seeded in a 96-well plate (3×10^4 cells/well). 24 hours post-seeding, the wells were treated with QSM (1 μM), placebo or positive control (DMSO 2%) and incubated for 24 hours at 37° C. Next, 20 μL of MTT reagent (5 mg/mL; Sigma-Aldrich) was added to each well and the plates were returned to the incubator for 2.5 hours. After incubation, supernatant was removed from the wells and 150 μL of DMSO was added to release and dissolve the formazan crystals. Absorbance was measured at 570 nm using a microplate reader (Thermo Fisher).\nThe MTT assay is a widely validated and accepted viability assay for screening experiments. In this assay, the reduction of MTT into formazan, catalysed by living cell enzymes, is used as a marker of cell viability. If QSM are cytotoxic or cytostatic towards C2C12 cells, a decrease in MTT reduction is expected (viability less than 100%), while an increased C2C12 proliferation caused by QSM will result in an increased MTT reduction (viability more than 100%).\nIn a further set of experiments, the dose response effect of QSPs Q22 and Q184 was assessed on MTT reduction of C2C12 myotubes (tables 7.4 and 7.5)."}, "[2]": {"tested_on": "human muscle cells", "assay": "MTT reduction dose response in human muscle cells", "type": "cell-based", "details": "FIG. 9", "description": "Differentiation medium consisted of high glucose Glutamax DMEM supplemented with penicillin (100 units/ml), streptomycin (100 μg/ml) and insulin (10 μg/mL).\nUsing similar methods as described for the C2C12 experiments, a number of QSPs were tested for a dose response relation in human muscle cells."}, "[3]": {"tested_on": "C2C12 myotubes", "assay": "MTT reduction dose response in C2C12 myotubes", "type": "cell-based, mouse", "description": "In a further set of experiments, using similar methods as described for the screening experiments, a number of QSPs were tested for a dose response relation in C2C12 cells."}, "[4]": {"details": "C. elegans medium, 1 μM during 12 days"}, "[5]": {"tested_on": "C. elegans", "assay": "C. elegans swimming behaviour (muscle wasting/aging model)", "type": "in vivo", "set-up": "key to Wave initiation rate / Asymmetry / Stretch / Curling / Travel speed / Brush stroke / Activity index: relative to placebo set to 1.0", "details": "for muscle wasting / aging muscle phenotype in C. elegans: QSP in medium (1 μM; QSP022 also 10 μM), swimming parameters; for Activity index / Asymmetry / Body wave number / Brush stroke / Curling / Stretch / Travel speed / Wave initiation rate: DMSO positive control", "description": "The C. elegans model is a well-established aging model: they diminish in locomotory vigor as they age, a phenomenon that is attributed to a physical deterioration of muscle and synapses. QSPs were introduced in the medium of living C. elegans. As comparisons, a placebo experiment was used as negative control, while DMSO was used as positive control.\nUsing automatic, objective imaging software, different swimming behaviour variables associated with this decrease in locomotory vigor or muscle wasting were investigated. Wave initiation rate, travel speed, brush stroke and activity index do decrease with muscle wasting, while body wave number, asymmetry, curling and stretch do increase with muscle wasting, as described in Restif et al., Plos Computational Biology, 2014.\nMore in particular, the results in these tables show Q184-associated changes in three swimming parameters in wild-type adults at day 3 (Table 9) and day 12 (Table 10) (n=120-170 from 3 independent trials for each condition). Data presented are means±s.e.m (placebo set to 1.0)."}, "[6]": {"details": "day 3, placebo set to 1.0, Q184 at 1 μM"}, "[7]": {"details": "day 12, placebo set to 1.0, Q184 at 1 μM"}},
  "note": "“Also recorded” adds a separate entry of the source. Where no end group is shown, it is not given here.",
  "data": [
    {"substance": "SIFTLVA [Q184, SIFTLVA]", "values": [
      {"measurement": "Imax (relative MTT)", "setting": "[1]; Blasts", "result": 0.63, "unit": "relative MTT"},
      {"measurement": "IC10", "setting": "[1]; MTT, Blasts", "result": 400, "unit": "nM"},
      {"measurement": "IC50", "setting": "[1]; MTT, Blasts", "result": 1490, "unit": "nM"},
      {"measurement": "Effect: viability (hit direction)", "setting": "[1]; screening at 1 μM, hit selection by MAD/quartile/SSMD/robust SSMD", "result": "decreasing viability hits"},
      {"measurement": "dose response relation, MTT reduction", "setting": "[2]", "result": "Typical curves were obtained"},
      {"measurement": "IC10", "setting": "[3]; MTT, Tubes", "result": 10, "unit": "nM"},
      {"measurement": "IC50", "setting": "[3]; MTT, Tubes", "result": 60, "unit": "nM"},
      {"measurement": "Imax (relative MTT)", "setting": "[3]; Tubes", "result": 0.48, "unit": "relative MTT"},
      {"measurement": "Relative MTT", "setting": "[3]; concentration 0.10 μM", "result": 0.68},
      {"measurement": "Relative MTT", "setting": "[3]; concentration 0.50 μM", "result": 0.60},
      {"measurement": "Relative MTT", "setting": "[3]; concentration 1.00 μM", "result": 0.56},
      {"measurement": "Relative MTT", "setting": "[3]; concentration 5.00 μM", "result": 0.49},
      {"measurement": "Relative MTT", "setting": "[3]; concentration 10 μM", "result": 0.49},
      {"measurement": "stability in the medium", "setting": "[4]", "result": "high stability"},
      {"measurement": "muscle wasting / aging muscle phenotype in C. elegans", "setting": "[5]", "result": "induced a muscle wasting phenotype; also recorded: muscle wasting effects; also recorded: inducing a muscle wasting phenotype"},
      {"measurement": "muscle wasting / aging muscle phenotype in C. elegans", "setting": "[5]; listed as QSP184", "result": "induces an aging muscle phenotype"},
      {"measurement": "Activity index", "setting": "[5]; [6]", "result": 0.82},
      {"measurement": "Asymmetry", "setting": "[5]; [6]", "result": 1.10},
      {"measurement": "Body wave number", "setting": "[5]; [6]", "result": 1.01},
      {"measurement": "Brush stroke", "setting": "[5]; [6]", "result": 0.87},
      {"measurement": "Curling", "setting": "[5]; [6]", "result": 0.92},
      {"measurement": "Stretch", "setting": "[5]; [6]", "result": 1.03},
      {"measurement": "Travel speed", "setting": "[5]; [6]", "result": 0.55},
      {"measurement": "Wave initiation rate", "setting": "[5]; [6]", "result": 0.90},
      {"measurement": "Activity index", "setting": "[5]; [7]", "result": 0.85},
      {"measurement": "Asymmetry", "setting": "[5]; [7]", "result": 1.37},
      {"measurement": "Body wave number", "setting": "[5]; [7]", "result": 1.29},
      {"measurement": "Brush stroke", "setting": "[5]; [7]", "result": 0.89},
      {"measurement": "Curling", "setting": "[5]; [7]", "result": 1.50},
      {"measurement": "Stretch", "setting": "[5]; [7]", "result": 1.06},
      {"measurement": "Travel speed", "setting": "[5]; [7]", "result": 0.81},
      {"measurement": "Wave initiation rate", "setting": "[5]; [7]", "result": 0.84}
    ]}
  ]
}
